In one experiment the test system is mice. The following applies: Ikoma et al., 2008; Oikawa et al., 2009 and unpublished observations; cited from earlier work.
Experiment [1] has as its target T1, recombinant homomeric GluA4 AMPA receptor (Rattus norvegicus, UniProt P19493).
T1 construct: expressed in transfected cells; host or cells: HEK293-T/17 (CRL-11268)
The experiment in a line: Whole-cell patch clamp of recombinant GluA4 receptors in HEK293-T/17 cells. The experiment is classed as cell-based. The following applies: for remaining activity at 30 µM: HEK293T/17, read-out: GluA4 peak current as percent of control amplitude; for inhibition at 30 µM: HEK293T/17, read-out: reduction from control GluA4 peak glutamate current amplitude (percent inhibition). As for the experimental part:
Cell Culture and Transfection. Human embryonic kidney cells expressing T-antigen, clone 17 (HEK293-T/17) (CRL-11268) were cultured at 37° C. with 5% CO2 in DMEM, including 100 μg/mL penicillin, 100 μg/mL streptomycin, and 10% heat-inactivated fetal bovine serum. Cells were split twice per week. For transfection, HEK293-T/17 cells were plated at 3×10^4 cells/cm^2 for pharmacology experiments and 5×10^3 cells/cm^2 for physiology experiments in fresh medium 24 h prior to transfection. Cells were transfected with AMPA or KA receptor plasmid cDNAs using Mirus Trans-IT transfection reagent (Minus Bio Corporation, Madison, Wis.) at a ratio of 1 μg cDNA: 3 μL Trans-1T reagent and maintained in transfection medium overnight followed by a media change the next day. Transfected cells were maintained in this medium until the experiment was conducted (48-72 h total post transfection).
Electrophysiology. For analysis of recombinant receptors, HEK293-T/17 cells were co-transfected with 0.2 μg of iGluR cDNA and 0.05 μg of eGFP. For heterologous GluA1/GluA2 receptors, the GluA1:GluA2 cDNA ratio was 1:6. Two to three days post-transfection, eGFP-expressing cells were lifted from the cover slip and voltage clamped in whole cell mode. The internal solution contained (in mM) 30 CsF, 110 CsCl, 10 HEPES, 4 NaCl, 5 EGTA and 0.5 CaCl2 (pH 7.3), while the extracellular solution contained (in mM) 140 NaCl, 10 glucose, 10 Cs-HEPES, 3 KCl, 2 CaCl2 and 1 MgCl2 (pH 7.3). Borosilicate patch electrodes were pulled and fire polished to 2-3 MO resistance. Lifted cells were maintained in a laminar stream of extracellular solution from a triple-barreled flow pipe, which was rapidly translated using a piezoceramic bimorph for fast application of glutamate or kainate alone or in combination with various antagonists (the 10-90% rise time of glutamate-evoked currents was ˜1 ms). IKM compounds were applied for three minutes with analysis performed on the final one minute of drug application.
Statistical analysis. At least three separate experiments were performed for each assay. For data involving three or more groups, a one-way analysis of variance (ANOVA) was performed with a Tukey-Kramer post hoc test for comparison amongst the groups. For data involving two groups, an unpaired student's t-test was performed; if the standard deviations between the two groups were statistically significant, a Welsh correction was added. If the data involving three or more groups or data involving two groups where multiple treatments were performed on the same sample, a repeated measures ANOVA and paired t-test were used, respectively, for analysis of significance. Dose-inhibition response curves were fitted, with the maximum value constrained to 100 and the minimum value constrained to values greater than or equal to zero, using the following equation in order to calculate the IC50 values: Response=minimum+(maximum−minimum)/(1+(IC50^hill slope/dose^hillslope)) All calculations for statistical analysis were carried out with Graphpad Prism4 software (La Jolla, Calif.). Data are presented as mean±S.E.M. with statistical significance set at p<0.05.
A general note: Patch clamp records ionic current or voltage across a cell membrane.

The subject of experiment [2] is primary hippocampal neurons. The experiment is described as follows: Spontaneous action potential firing, current clamp, cultured hippocampal neurons. The format is cell-based. The conditions noted are these: 20 μM. As for the experimental part: (§1) Experiments involving primary hippocampal neurons were carried out as described previously (Vivithanaporn et al., 2007). Dissociated neurons were cultured from E18 prenatal hippocampi and were used for analysis from between 17 and 28 days in vitro. The extracellular solution was the same as used for recombinant receptor analysis, while the internal solution for voltage clamp recordings contained (in mM) 95 CsF, 25 CsCl, 10 Cs-HEPES, 10 EGTA, 2 NaCl, 2 Mg-ATP, 10 QX-314, 5 TEA. and 5 4-AP (pH 7.3) and the internal solution for current clamp recordings contained (in mM) 120 KMeSO4, 5 KCl, 5 NaCl, 1 MgCl2, 11 Na-HEPES, 10 phosphocreatine, 4 Na-ATP, and 0.3 Na-GTP (pH 7.0). Borosilicate patch electrodes were pulled and fire polished to 3-5 MΩ resistance. Both whole cell current clamp and voltage clamp recordings were performed using an Axopatch 200B amplifier (MDS, Sunnyvale, Calif.) and filtered at 20 kHz. Gigaohm seals were established in voltage clamp mode and, after membrane rupture, the recordings were carried out either in voltage clamp (clamped at Vm=−70 mV) with a […] series resistance, which was compensated to ˜60%, or in current clamp mode ([…]) with the bridge balance was corrected and pipette resistance neutralized. In vitro status epilepticus (SE) was induced as described previously (Deshpande et al., 2007; Pal et al., 1999) and action potentials were recorded in current clamp mode. Briefly for in vitro SE, magnesium-containing external solution was exchanged for external solution without magnesium and supplemented with 2 μM glycine. This solution exchange produced a period of rapid depolarization and increased AP firing, followed by a period of channel inactivation and reduced AP firing. After channel inactivation, neurons characteristically would hyperpolarize to hold at a membrane voltage (Vm) which was depolarized relative to control Vm, with an increase in AP firing frequency. […] External solutions were bath-applied at a flow rate of 1.5-2 ml/minute. After recording a basal control period, IKM compounds were applied for five minutes (10 minutes for in vitro SE experiments) and changes in excitatory post-synaptic current (EPSC) charge transfer or action potential (AP) frequency were analyzed during the last two minutes of IKM application.
Effects of IKM-159 on neuronal excitability. […] To determine if altered neuronal excitability could contribute to this behavioral phenotype, we examined the effect of IKM-86 and IKM-159 on action potential firing in cultured hippocampal neurons. Spontaneous action potentials were recorded in current-clamp mode before, during and after application of 20 μM IKM-86 and IKM-159. […]

Experiment [3] concerns AMPA receptor-mediated EPSCs in primary hippocampal neurons. The experiment is described as follows: AMPA receptor EPSC charge transfer during spontaneous synaptic bursts, whole-cell voltage clamp, cultured hippocampal neurons. The experiment is classed as cell-based. The following applies: 30 μM; for charge transfer during bursts of AMPA receptor-mediated synaptic events as a percent of the charge transfer during the control period: voltage clamped at −70 mV. As for the experimental part: as §1
We first measured the actions of the IKM compounds on the charge transfer during spontaneously occurring, polysynaptic bursts of AMPA receptor excitatory post-synaptic currents (EPSCs) in cultured hippocampal neurons (recorded in the presence of bicuculline methiodide and picrotoxin to inhibit GABAA receptors and D-APV to inhibit NMDA receptors). […] IKM-159 had the greatest inhibitory effect at a fixed concentration of 30 μM, producing a reduction in charge transfer of 65±5% (n=6, p<0.01). […] Despite the polar chemical nature of the compounds, recoveries to basal EPSC charge transfers were minimal.

The subject of another experiment is AMPA receptors. The conditions noted are these: cited from earlier work; for concentration range inhibiting AMPA receptors: Bleakman et al., 1996.
For experiment [4], the system named is cultured hippocampal neurons. The experiment is described as follows: Whole-cell current elicited in cultured hippocampal neurons. The format is cell-based. The conditions noted are these: 30 μM; GABAA and NMDA receptor antagonists present. As for the experimental part:
Experiments involving primary hippocampal neurons were carried out as described previously (Vivithanaporn et al., 2007). Dissociated neurons were cultured from E18 prenatal hippocampi and were used for analysis from between 17 and 28 days in vitro. The extracellular solution was the same as used for recombinant receptor analysis, while the internal solution for voltage clamp recordings contained (in mM) 95 CsF, 25 CsCl, 10 Cs-HEPES, 10 EGTA, 2 NaCl, 2 Mg-ATP, 10 QX-314, 5 TEA. and 5 4-AP (pH 7.3) and the internal solution for current clamp recordings contained (in mM) 120 KMeSO4, 5 KCl, 5 NaCl, 1 MgCl2, 11 Na-HEPES, 10 phosphocreatine, 4 Na-ATP, and 0.3 Na-GTP (pH 7.0). Borosilicate patch electrodes were pulled and fire polished to 3-5 MΩ resistance. Both whole cell current clamp and voltage clamp recordings were performed using an Axopatch 200B amplifier (MDS, Sunnyvale, Calif.) and filtered at 20 kHz. […] In vitro status epilepticus (SE) was induced as described previously (Deshpande et al., 2007; Pal et al., 1999) and action potentials were recorded in current clamp mode. […] After recording a basal control period, IKM compounds were applied for five minutes (10 minutes for in vitro SE experiments) and changes in excitatory post-synaptic current (EPSC) charge transfer or action potential (AP) frequency were analyzed during the last two minutes of IKM application. […]

Experiment [5] concerns primary hippocampal neurons. The experiment in a line: In vitro model of status epilepticus (Mg2+ removal, 2 μM glycine), action potential firing in hippocampal neurons. The format is cell-based. The following applies: 1 μM; SE 2.0±0.3 Hz. As for the experimental part: as §1
Several AMPA receptor selective antagonists reduce neuronal hyperactivity in both acute brain slice preparations and in in vitro models of epilepsy (Grasso et al., 1999; Szabados et al., 2001). […] We therefore tested the efficacy of IKM-159 in reducing the hyperactive neuronal phenotype in dissociated hippocampal neurons using an in vitro model of status epilepticus (SE) (Deshpande et al., 2007; Pal et al., 1999). […]

Entries after “also recorded” stand apart in the source; their conditions may differ.

T1 sequence (P19493 21-902 isoform P19493-2 limits assumed): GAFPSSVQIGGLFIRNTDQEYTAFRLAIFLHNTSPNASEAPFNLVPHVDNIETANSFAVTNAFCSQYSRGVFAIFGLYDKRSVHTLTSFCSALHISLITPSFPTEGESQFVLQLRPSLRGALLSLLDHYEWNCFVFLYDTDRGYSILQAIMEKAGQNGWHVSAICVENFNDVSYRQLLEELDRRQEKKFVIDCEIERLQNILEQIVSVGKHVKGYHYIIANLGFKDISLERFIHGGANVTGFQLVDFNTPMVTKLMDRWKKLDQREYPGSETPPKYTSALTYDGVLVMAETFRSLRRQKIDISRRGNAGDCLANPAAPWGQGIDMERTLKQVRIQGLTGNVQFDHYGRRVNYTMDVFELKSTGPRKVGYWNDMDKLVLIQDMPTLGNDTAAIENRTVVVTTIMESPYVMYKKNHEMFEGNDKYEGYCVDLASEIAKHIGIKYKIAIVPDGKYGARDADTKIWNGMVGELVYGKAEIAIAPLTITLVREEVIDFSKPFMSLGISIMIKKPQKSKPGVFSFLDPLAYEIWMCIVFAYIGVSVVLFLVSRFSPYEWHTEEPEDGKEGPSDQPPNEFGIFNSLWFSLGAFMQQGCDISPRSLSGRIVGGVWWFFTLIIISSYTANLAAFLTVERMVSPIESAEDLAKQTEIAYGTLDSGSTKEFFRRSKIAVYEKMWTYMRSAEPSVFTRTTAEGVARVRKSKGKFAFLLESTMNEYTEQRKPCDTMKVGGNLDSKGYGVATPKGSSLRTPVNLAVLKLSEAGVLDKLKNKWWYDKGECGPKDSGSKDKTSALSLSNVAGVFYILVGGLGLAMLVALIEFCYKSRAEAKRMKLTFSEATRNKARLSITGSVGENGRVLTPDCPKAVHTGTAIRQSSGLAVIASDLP

Consider `O=C(O)C[C@@]12O[C@H]3[C@H](O)[C@H](O)CO[C@H]3C1CN[C@H]2C(=O)O` (stereo partly drawn) [IKM-86], for which the “behavioral phenotype in mice” value in the experiment with mice was “hypoactive phenotypes similar to cataleptic states; also recorded: marked hypoactivity and immobility”. In experiment [1], the remaining activity at 30 µM was found to be 81 ± 2% and the inhibition at 30 µM is 19 ± 2%. Further, the “persistence of reduction in action potential firing frequency after removal of compound” value in experiment [2] is on record as “prolonged”. For the same compound, the “action potential firing frequency in presence of compound” value in experiment [2] (basal (spontaneous) firing) turned out to be 0.9±0.3 Hz. Besides, in experiment [3], the “reduction from control charge transfer” value was determined as 42±8% and the “charge transfer during bursts of AMPA receptor-mediated synaptic events as a percent of the charge transfer during the control period” value was 58±8%.

`O=C(O)C[C@@]12O[C@H]3C=CCN[C@H]3C1C(=O)N[C@H]2C(=O)O` (stereo partly drawn) [IKM-27]: the “behavioral phenotype in mice” value in the experiment on mice is on record as “hypoactive phenotypes similar to cataleptic states”. In experiment [1], the remaining activity at 30 µM worked out at 80 ± 6% and the inhibition at 30 µM stood at 20 ± 6%. In addition, in experiment [3], the “reduction from control charge transfer” value was found to be 31±9% and the “charge transfer during bursts of AMPA receptor-mediated synaptic events as a percent of the charge transfer during the control period” value is on record as 70±9%.

Regarding `CNC(=O)N1N=C(c2ccc(N)cc2)c2cc3c(cc2CC1C)OCO3` (stereo not drawn) [GYKI 53655], in the experiment with AMPA receptors, the “concentration range inhibiting AMPA receptors” value is reported as “low micromolar range”.

As to `O=C(O)C[C@@]12O[C@H]3[C@H](O)[C@H](O)CCO[C@H]3C1CN[C@H]2C(=O)O` (stereo partly drawn) [IKM-107], in experiment [4], the whole-cell current elicited came out at 47±11 pA. In addition, the “behavioral phenotype in mice” value in the experiment on mice is “varying degrees of hyperactivity”. In addition, in experiment [1], the remaining activity at 30 µM came to 95 ± 2% and the inhibition at 30 µM is 5 ± 2%. In experiment [3], the “reduction from control charge transfer” value is on record as 39±12% and the “charge transfer during bursts of AMPA receptor-mediated synaptic events as a percent of the charge transfer during the control period” value was found to be 62±12%.

`O=C(O)C[C@@]12O[C@H]3CCCCO[C@H]3C1CN[C@H]2C(=O)O` (stereo partly drawn) [IKM-98]: in experiment [4], the whole-cell current elicited was determined as 380±160 pA. Moreover, in the experiment with mice, the “behavioral phenotype in mice” value is reported as “varying degrees of hyperactivity”. Moreover, in experiment [1], the remaining activity at 30 µM was found to be 88 ± 2% and the inhibition at 30 µM is 12 ± 2%. Moreover, in experiment [3], the “reduction from control charge transfer” value worked out at 11±14% and the “charge transfer during bursts of AMPA receptor-mediated synaptic events as a percent of the charge transfer during the control period” value is listed as 89±14%.

As to `O=C(O)C[C@@]12O[C@H]3CCCO[C@H]3C1CN[C@H]2C(=O)O` (stereo partly drawn) [IKM-110], the “behavioral phenotype in mice” value in the experiment with mice is “varying degrees of hyperactivity”. In experiment [1], the remaining activity at 30 µM was 86 ± 2% and the inhibition at 30 µM was 14 ± 2%. Also, in experiment [3], the “reduction from control charge transfer” value was determined as 34±12% and the “charge transfer during bursts of AMPA receptor-mediated synaptic events as a percent of the charge transfer during the control period” value was found to be 66±12%.

As for `Cc1cc(-c2ccc(/N=N/c3ccc4c(S(=O)(=O)[O-])cc(S(=O)(=O)[O-])c(N)c4c3O)c(C)c2)ccc1/N=N/c1ccc2c(S(=O)(=O)[O-])cc(S(=O)(=O)[O-])c(N)c2c1O.[Na+].[Na+].[Na+].[Na+]` [EB], at AMPA receptors (non-competitive antagonist, Keller et al., 1993, Weigand et al., 1998), the IC50 result is given as “high nanomolar-low micromolar range”.

In the case of `CC1=NN=C(c2ccc(N)cc2)c2cc3c(cc2C1)OCO3` [GYKI 52466], in the experiment on AMPA receptors, the “concentration range inhibiting AMPA receptors” value is given as “low micromolar range”.

`N#Cc1cc2c(cc1[N+](=O)[O-])=NC(=O)C(=O)N=2` [CNQX, 6-cyano-7-nitroquinoxaline-2,3-dione, reference compound]: the “AP firing frequency in SE condition with compound” value in experiment [5] worked out at 1.2±0.4 Hz.

In general, inhibition refers to the share of the control response that was lost under treatment.
